Tests used:
algae (mix) = assay: Water and algae mix in a test tube; format: cell-based, green algae; settings: 10 mMol (2,840 ppm) in 2 ml water and algae mix
Description: Thaxtomin was added to water and algae in a test tube.
Metolachlor (2-chloro-N-(6-ethyl-o-tolyl)-N-[(1RS)-2-methoxy-1-methylethyl]acetamide) is a known pre-emergent herbicide commonly used to control annual grasses and some broadleaves such as Eastern black nightshade and pigweeds.

Batrachospermum spp. = assay: Bioactivity of purified thaxtomin verse CuSO4, algae growth bioassay; format: cell-based; set-up: key: ++ = visible death; + = growth inhibition; − = no visible growth inhibition; settings: 2 ppm, two weeks
Description: (§1) Purified thaxtomin was used for a bioassay test and its efficacy evaluated and compared with copper sulphate, an active ingredient for many copper based algaecides. The bioassay was run for two weeks and inhibition of algae growth was evaluated.

Rhodymenia spp. = assay: as above; format: cell-based; set-up: key: ++ = visible death; + = growth inhibition; − = no visible growth inhibition; settings: 2 ppm, two weeks
Description: as §1

Oscillatoria spp. = assay: as above; format: cell-based; set-up: key: ++ = visible death; + = growth inhibition; − = no visible growth inhibition; settings: 2 ppm, two weeks
Description: as §1

Spirogyra spp. = assay: as above; format: cell-based; set-up: key: ++ = visible death; + = growth inhibition; − = no visible growth inhibition; settings: 2 ppm, two weeks
Description: as §1

Oedogonium spp. = assay: as above; format: cell-based; set-up: key: ++ = visible death; + = growth inhibition; − = no visible growth inhibition; settings: 2 ppm, two weeks
Description: as §1

the tested algae = assay: Purified thaxtomin versus copper sulphate bioassay (text summary of Example 5); format: cell-based; settings: 2 ppm (commercial recommended rate); two weeks
Description: as §1

For `CCc1cccc(C)c1N(C(=O)CCl)C(C)COC` (racemic) [Metolachlor, 2-chloro-N-(6-ethyl-o-tolyl)-N-[(1RS)-2-methoxy-1-methylethyl]acetamide], the “Results: appearance of water and algae mix” value (algae (mix)) was “did not show any algaestatic and/or algaecidal activity”.

`O=S(=O)([O-])[O-].[Cu+2]` [CuSO4, copper sulphate] was tested, and the “Bioactivity (inhibition of algae growth)” value (Batrachospermum spp.) was “−”, the “Bioactivity (inhibition of algae growth)” value (Rhodymenia spp.) was “−” and the “Bioactivity (inhibition of algae growth)” value (Oscillatoria spp.) was “−”. For the same compound, the “Bioactivity (inhibition of algae growth)” value (Spirogyra spp.) was “+”, the “Bioactivity (inhibition of algae growth)” value (Oedogonium spp.) was “−” and the “efficacy against the tested organisms” value (the tested algae) was “not very effective”.
